Calls of active or inactive are those of the source.
Tests used:
[1] = cytotoxicity toward HCT116 cells – cell-based, CellTiter-Glo luminescence, IC50, dose response (AID 1117332); format: functional; conditions: HCT-116
[2] = cytotoxicity toward Colo320 cells – cell-based, CellTiter-Glo luminescence, IC50, dose response (AID 1117334); format: functional; conditions: COLO 320
[3] = Reduced DLD-1 viability, concentration-response, CellTiter-Glo luminescence (AID 1117352); format: functional
[4] = SNU-C1 cell viability reduction, dose response, CellTiter-Glo luminescence (AID 1117323); format: functional, cell-based
[5] = RKO cell viability reduction, dose response, CellTiter-Glo luminescence (AID 1117322); format: functional
[6] = target: Aryl hydrocarbon receptor (Homo sapiens, UniProt P35869); conditions: Potency;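 note: confirmatory quantitative high-throughput screen measuring activation of the AhR signaling pathway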
Sequence of Aryl hydrocarbon receptor (P35869 whole entry): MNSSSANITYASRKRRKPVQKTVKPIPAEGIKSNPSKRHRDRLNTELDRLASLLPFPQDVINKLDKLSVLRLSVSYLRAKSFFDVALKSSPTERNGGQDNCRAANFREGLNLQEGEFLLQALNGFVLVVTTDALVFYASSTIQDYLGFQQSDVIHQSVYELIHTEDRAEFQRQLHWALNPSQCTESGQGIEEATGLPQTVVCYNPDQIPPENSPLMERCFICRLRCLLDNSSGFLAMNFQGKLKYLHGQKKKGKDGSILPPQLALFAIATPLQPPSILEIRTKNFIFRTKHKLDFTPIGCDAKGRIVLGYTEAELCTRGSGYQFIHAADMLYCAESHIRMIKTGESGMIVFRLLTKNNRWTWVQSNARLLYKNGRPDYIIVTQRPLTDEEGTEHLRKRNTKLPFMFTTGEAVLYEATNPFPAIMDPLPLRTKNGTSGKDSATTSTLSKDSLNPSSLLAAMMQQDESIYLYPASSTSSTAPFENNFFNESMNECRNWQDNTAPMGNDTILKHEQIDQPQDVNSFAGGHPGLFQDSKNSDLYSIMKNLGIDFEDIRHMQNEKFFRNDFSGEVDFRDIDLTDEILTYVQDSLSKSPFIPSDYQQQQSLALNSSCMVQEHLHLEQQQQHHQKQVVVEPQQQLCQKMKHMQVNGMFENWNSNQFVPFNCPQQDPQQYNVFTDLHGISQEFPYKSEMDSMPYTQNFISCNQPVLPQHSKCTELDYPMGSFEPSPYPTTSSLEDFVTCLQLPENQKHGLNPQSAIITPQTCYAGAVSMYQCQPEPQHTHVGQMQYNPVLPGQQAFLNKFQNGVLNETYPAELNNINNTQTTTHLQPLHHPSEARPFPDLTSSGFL

INS1 = assay: INS-1E survival protection against cytokine death – cell-based, luminescence, retest, dose response (AID 449756); format: functional; conditions: Rattus norvegicus;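 note: cell death triggered by IL-1 beta plus TNF-alpha plus IFN-gamma mixture; protective hits raise ATP signal compared with cytokine alone wells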
[7] = HCT116 cell viability decrease, GSK3B pretreatment – CellTiter-Glo, IC50, dose response (AID 1117339); format: functional; conditions: HCT-116
[8] = target: NACHT, LRR and PYD domains-containing protein 3 (Homo sapiens, UniProt Q96P20); assay: NALP3 inhibitors in yeast, dose response, luminescent (AID 488799); format: functional
Sequence of NACHT, LRR and PYD domains-containing protein 3 (Q96P20 whole entry, the tested form may be a part): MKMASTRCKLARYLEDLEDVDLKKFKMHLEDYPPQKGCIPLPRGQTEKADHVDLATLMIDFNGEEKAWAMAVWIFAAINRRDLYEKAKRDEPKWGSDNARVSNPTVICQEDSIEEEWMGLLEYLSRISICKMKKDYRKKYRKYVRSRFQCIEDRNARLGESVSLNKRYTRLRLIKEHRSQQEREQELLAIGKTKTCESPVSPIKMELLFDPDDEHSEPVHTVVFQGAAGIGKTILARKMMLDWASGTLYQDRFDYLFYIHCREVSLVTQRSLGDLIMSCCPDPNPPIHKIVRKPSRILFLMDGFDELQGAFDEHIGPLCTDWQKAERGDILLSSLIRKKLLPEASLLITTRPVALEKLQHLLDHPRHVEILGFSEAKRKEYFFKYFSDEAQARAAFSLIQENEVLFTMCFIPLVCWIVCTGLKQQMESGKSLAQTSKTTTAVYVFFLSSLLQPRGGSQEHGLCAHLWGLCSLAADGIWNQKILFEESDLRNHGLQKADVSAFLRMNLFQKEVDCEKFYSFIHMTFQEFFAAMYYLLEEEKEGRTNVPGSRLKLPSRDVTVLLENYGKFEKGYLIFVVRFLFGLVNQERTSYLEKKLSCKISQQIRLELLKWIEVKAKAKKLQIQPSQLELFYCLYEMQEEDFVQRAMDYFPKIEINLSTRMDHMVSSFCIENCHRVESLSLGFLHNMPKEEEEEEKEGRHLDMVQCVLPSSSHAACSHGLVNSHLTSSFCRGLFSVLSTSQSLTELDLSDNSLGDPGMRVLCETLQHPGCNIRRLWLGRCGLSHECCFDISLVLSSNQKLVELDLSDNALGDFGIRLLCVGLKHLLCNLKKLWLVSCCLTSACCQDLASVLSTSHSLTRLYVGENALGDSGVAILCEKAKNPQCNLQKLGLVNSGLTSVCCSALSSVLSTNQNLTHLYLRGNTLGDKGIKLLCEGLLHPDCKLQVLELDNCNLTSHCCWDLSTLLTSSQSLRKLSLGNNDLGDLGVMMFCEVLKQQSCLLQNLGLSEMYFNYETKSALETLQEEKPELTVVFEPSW

[9] = cytotoxicity toward HT-29 cells – cell-based, CellTiter-Glo luminescence, IC50, dose response (AID 1117330); format: functional
[10] = CellTiter-Glo luminescence survival assay, SW480 colon tumor line, concentration-response curve, half-maximal inhibitory concentration (AID 1117338); format: functional
[11] = target: Nucleotide-binding oligomerization domain-containing protein 2 (Homo sapiens, UniProt Q9HC29); assay: PubChem AID 2334; format: functional
Sequence of Nucleotide-binding oligomerization domain-containing protein 2 (Q9HC29 whole entry, the tested form may be a part): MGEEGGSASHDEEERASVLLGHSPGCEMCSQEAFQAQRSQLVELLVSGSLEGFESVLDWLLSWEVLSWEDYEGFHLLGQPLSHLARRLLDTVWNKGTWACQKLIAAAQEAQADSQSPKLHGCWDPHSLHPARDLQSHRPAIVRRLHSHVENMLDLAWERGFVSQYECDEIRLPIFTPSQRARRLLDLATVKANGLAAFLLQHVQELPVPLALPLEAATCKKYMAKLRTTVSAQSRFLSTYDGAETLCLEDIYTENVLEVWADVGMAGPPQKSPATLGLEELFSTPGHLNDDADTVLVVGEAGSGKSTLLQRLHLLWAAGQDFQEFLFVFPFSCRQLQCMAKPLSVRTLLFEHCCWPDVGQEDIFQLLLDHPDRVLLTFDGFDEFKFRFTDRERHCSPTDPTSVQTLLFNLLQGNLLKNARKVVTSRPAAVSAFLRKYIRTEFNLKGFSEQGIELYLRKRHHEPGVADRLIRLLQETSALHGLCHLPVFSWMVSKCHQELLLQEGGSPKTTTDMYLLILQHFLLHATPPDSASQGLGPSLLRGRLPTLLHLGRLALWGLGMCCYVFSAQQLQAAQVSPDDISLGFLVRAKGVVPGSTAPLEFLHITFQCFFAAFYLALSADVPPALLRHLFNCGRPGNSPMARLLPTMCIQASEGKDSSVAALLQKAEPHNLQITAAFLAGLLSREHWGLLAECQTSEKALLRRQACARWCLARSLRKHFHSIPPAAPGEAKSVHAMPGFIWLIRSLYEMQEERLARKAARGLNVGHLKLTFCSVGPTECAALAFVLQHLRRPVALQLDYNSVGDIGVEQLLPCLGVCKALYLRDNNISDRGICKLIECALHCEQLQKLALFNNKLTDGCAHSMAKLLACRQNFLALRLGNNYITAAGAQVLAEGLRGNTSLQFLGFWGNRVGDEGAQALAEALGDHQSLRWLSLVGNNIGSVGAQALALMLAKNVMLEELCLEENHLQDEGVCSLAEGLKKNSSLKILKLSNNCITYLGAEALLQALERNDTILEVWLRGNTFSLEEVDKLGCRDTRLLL

[12] = target: Nucleotide-binding oligomerization domain-containing protein 1 (Homo sapiens, UniProt Q9Y239); assay: blockers of NOD1 pathway activity – revised, SAR follow-up (AID 2333); format: functional
Sequence of Nucleotide-binding oligomerization domain-containing protein 1 (Q9Y239 whole entry, the tested form may be a part): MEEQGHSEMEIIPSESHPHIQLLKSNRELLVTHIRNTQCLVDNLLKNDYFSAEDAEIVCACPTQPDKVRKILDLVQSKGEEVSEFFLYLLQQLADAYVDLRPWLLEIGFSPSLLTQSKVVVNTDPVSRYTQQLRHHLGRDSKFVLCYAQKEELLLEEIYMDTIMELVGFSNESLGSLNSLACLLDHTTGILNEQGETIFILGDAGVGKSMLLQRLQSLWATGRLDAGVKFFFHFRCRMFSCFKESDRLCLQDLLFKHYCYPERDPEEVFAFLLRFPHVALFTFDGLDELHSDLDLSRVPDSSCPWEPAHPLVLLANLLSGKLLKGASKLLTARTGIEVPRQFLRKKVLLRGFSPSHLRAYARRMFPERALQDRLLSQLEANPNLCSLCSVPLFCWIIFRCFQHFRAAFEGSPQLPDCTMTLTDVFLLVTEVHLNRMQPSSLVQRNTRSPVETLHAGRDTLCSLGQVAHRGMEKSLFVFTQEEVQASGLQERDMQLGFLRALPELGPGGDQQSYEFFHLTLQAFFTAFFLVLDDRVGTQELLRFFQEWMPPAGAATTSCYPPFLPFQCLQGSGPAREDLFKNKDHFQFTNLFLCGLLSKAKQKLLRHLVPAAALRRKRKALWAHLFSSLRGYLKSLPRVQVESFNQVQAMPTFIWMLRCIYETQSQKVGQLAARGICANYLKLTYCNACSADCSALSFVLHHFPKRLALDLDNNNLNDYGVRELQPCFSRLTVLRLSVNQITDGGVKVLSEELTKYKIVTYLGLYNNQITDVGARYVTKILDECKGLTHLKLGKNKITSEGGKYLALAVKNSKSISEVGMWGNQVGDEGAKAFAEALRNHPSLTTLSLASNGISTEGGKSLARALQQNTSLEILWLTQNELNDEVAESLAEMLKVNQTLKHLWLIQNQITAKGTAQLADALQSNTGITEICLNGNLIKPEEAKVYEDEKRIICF

Streptokinase A = target: T1, Streptokinase A (Streptococcus pyogenes serotype M1, UniProt P10520); assay: viability-normalized secreted streptokinase activity reduction – plasminogen activation absorbance, OD405, dose response (AID 1914); format: functional, Streptococcus pyogenes M1 GAS;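 note: secreted streptokinase activity via plasminogen activation per viability signal from cell pellet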
T1 sequence (P10520 whole entry): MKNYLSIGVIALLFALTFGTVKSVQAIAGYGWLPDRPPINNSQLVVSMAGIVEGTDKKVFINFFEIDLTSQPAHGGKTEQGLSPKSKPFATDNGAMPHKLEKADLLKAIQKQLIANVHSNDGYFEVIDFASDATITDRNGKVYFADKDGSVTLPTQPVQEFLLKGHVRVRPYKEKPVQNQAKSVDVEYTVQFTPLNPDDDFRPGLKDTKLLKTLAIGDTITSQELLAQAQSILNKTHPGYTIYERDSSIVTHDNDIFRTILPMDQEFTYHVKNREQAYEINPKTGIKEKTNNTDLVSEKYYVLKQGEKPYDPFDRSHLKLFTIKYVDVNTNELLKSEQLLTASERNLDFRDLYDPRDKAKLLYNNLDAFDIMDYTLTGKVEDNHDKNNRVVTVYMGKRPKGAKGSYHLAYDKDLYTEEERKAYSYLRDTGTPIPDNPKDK

H9c2 = assay: cells; format: functional, cell-based; conditions: Rattus norvegicus, H9c2, Myocardium;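 note: confirmatory concentration-response retest of ultra-high-throughput screening hits for modulation of myocardial damage; cell death induced by hydrogen peroxide oxidative stress; compound pretreatment for 60 min then peroxide exposure for 2 h; potency is for protecting the cells against peroxide damage rather than for killing them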
Tumor necrosis factor = Tumor necrosis factor (Homo sapiens, UniProt P01375); assay: analog potency on TNFa NF-kB signaling – cell-based, revised, SAR follow-up (AID 2337); format: functional
Sequence of Tumor necrosis factor (P01375 whole entry): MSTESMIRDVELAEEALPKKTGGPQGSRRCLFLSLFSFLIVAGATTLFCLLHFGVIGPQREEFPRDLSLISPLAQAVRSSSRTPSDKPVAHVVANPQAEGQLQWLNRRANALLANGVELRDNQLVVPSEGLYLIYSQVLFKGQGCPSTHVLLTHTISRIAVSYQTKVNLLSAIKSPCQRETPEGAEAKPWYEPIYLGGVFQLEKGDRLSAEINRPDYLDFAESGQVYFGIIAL

Streptococcus = assay: GAS UMAA2166 growth inhibition – luminescence, BacTiterGlo, counter-screen for streptokinase expression inhibitor project, dose response (AID 1915); format: functional, organism-based;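 note: potency for reduction of bacterial viability or growth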
[13] = tested on: Streptococcus sp. 'group A'; assay: Streptococcus pyogenes SK(-)GAS viability under kanamycin – luminescence, BacTiterGlo, confirmation, counter-screen for streptokinase expression inhibitor project, dose response (AID 1900); format: functional, organism-based; conditions: read-out: EC50
HEK293 = assay: cells; conditions: Homo sapiens;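 note: cells exposed to compound for 14 hours overnight before viability readout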
[14] = target: Neurotensin receptor type 1 (Homo sapiens, UniProt P30989); format: functional;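 note: Image-based confirmatory dose-response assay measuring agonist activity at NTR1; NTR1-expressing U2OS osteosarcoma cells imaged for beta-arrestin GFP spot formation; agonist potency where compounds increase beta-arrestin recruitment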
Sequence of Neurotensin receptor type 1 (P30989 whole entry): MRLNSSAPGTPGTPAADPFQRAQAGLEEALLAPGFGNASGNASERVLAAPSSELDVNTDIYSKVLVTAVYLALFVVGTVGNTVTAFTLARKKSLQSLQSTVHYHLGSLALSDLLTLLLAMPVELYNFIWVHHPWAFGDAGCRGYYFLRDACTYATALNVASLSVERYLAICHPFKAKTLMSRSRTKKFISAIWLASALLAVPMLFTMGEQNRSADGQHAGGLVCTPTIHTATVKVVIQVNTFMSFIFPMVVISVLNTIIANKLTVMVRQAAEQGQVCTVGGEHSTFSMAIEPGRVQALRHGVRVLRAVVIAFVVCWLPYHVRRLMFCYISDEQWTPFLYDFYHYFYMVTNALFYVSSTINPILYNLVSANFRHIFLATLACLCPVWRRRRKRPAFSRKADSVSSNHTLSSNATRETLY

[15] = target: G-protein coupled receptor 55 (Homo sapiens, UniProt Q9Y2T6); assay: selective activators of receptor GPR55 – imaging, U2OS cells, beta-arrestin-GFP redistribution, primary screen (AID 1961); format: functional
Sequence of G-protein coupled receptor 55 (Q9Y2T6 whole entry): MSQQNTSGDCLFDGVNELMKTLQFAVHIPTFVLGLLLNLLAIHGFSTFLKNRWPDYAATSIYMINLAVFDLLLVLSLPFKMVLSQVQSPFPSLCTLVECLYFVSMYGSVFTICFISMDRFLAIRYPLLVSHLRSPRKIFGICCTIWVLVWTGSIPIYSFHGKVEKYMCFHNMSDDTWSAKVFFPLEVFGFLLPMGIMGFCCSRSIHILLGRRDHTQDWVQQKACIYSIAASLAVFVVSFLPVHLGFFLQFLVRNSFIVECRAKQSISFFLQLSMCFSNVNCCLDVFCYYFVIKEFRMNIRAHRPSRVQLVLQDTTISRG

O=C(Nc1ccc(Cl)cc1)Nc1ccc(Cl)c(Cl)c1 [TRICLOCARBAN]
IC50 [1]: 0.228 µM (active) | IC50 [2]: 0.362 µM (active) | IC50 [3]: 0.323 µM (active) | IC50 [4]: 0.335 µM (active) | IC50 [5]: 0.288 µM (active) | AC50 [6]: 14.1 µM (inconclusive) | AC50 (INS1): 3.69 µM (active) | IC50 [7]: 0.362 µM (active) | IC50 [8]: 1.49 µM (active) | IC50 [9]: 0.383 µM (active) | IC50 [10]: 0.897 µM (active)

O=C(Nc1nc2ccccc2n1Cc1ccccc1)c1ccco1
IC50 [11]: > 20 µM (inactive) | IC50 [12]: > 20 µM (inactive) | EC50 (Streptokinase A): > 150 µM (not active) | IC50 (H9c2): > 79 µM (inactive) | IC50 (Tumor necrosis factor): > 20 µM (inactive) | EC50 (Streptococcus): > 150 µM (not active) | EC50 [13]: 3.48 µM (active) | IC50 (HEK293): > 20 µM (inactive)

O=C(/C=C/c1ccccc1F)c1cccc([N+](=O)[O-])c1
EC50 [14]: 15.1 µM (active)

CCN(CC)S(=O)(=O)c1ccc(OC)c(NC(=O)C(C)Oc2ccc3c(C)cc(=O)oc3c2)c1 (stereo unspecified)
EC50 [15]: 16.4 µM (inactive)

— ChEMBL document CHEMBL1201862, “PubChem BioAssay data set” (2004)
